In patent US5043332A, “Novel 11β-substituted -19-nor-steriods” (priority 1981, dated 1991):

Tests used:
[1] = tested on: granuloma; assay: Anti-inflammatory activity, classical granuloma test (cotton pellets); assay type: in vivo, Wistar rats; conditions: subcutaneous dose of 50 mg/kg
Description: II. Anti-inflammatory Activity
(§1) The anti-inflammatory activity of the compound of Example 4 was determined by the classical granuloma test by a modification of the Meier et al test [Experientia, Vol. 6 (1950), p. 469] in which normal female Wistar rats weighing 100 to 110 g received an implantation of 2 pellets of cotton weighing 10 mg each under the thorax skin. The subcutaneous treatment which began immediately after the implantation for 2 days was 2 injections per day. 16 hours after the last injection, the animals were killed and the pellets together with the granuloma tissue formed were weighed in the fresh state and after 16 hours at 60° C. The weight of the granuloma was obtained by subtracting the initial weight of the cotton. The thymus was also removed and weighed to determine the thymolytic activity of the test product.

[2] = tested on: female rats; assay: Anti-implantation and abortive activities in female rats; assay type: in vivo, rat; conditions: by mouth
Description: V. ANTI-IMPLANTATION AND ABORTIVE ACTIVITIES IN FEMALE RATS
The first day of gestation is determined by the presence of sperm in the vagina.
The animals were sacrificed between the 5th and 8th day after the last treatment and the uterus was examined.

[3] = tested on: uterine endometrium; assay: Progestomimetic activity, intrauterine, change in uterine endometrium (McPhail); assay type: in vivo, immature female rabbits; conditions: method of McPhail
Description: (§2) Groups of three immature female rabbits weighing about 1 kg were topically treated on the dorsal skin with 25 μg of estradiol in 10 μl of ethanol on day 1. On day 4 the product to be tested dissolved in 0.1 ml, of sesame oil containing 5% benzyl alcohol was introduced into a part of the uterus isolated between two ligatures. On the sixth day the animals were sacrificed, their uteruses retained and fixed in Bouin's solution for histological examination. Changes in the uterine endometrium were noted after the method of McPhail.

[4] = tested on: uterine endometrium; assay: Anti-progestomimetic activity versus progesterone, intrauterine, change in uterine endometrium (McPhail); assay type: in vivo, immature female rabbits
Description: as §2

[5] = tested on: uterine endometrium; assay: Progestomimetic activity, oral, change in uterine endometrium (McPhail); assay type: in vivo, immature female rabbits
Description: (§3) IV. Progestomimetic and Anti-progestomimetic Activity
(§4) a) Groups of immature female rabbits weighing about 1 kg had administered to them subcutaneously from day 1 to day 5, 5 μg of estradiol. The product tested was afterward administered orally from day 8 to day 11 in a volume of 0.5 cm^3 of water containing 0.5% of carboxymethyl cellulose and 0.2% of Tween. On day 12, the rabbits were sacrificed, their uteruses were retained and fixed in Bouin's solution and histologically studied.
(§5) The changes in the uterine endometrium were noted according to the method of McPhail.

[6] = tested on: thymus; assay: Thymolytic activity in the granuloma test; assay type: in vivo, Wistar rats; conditions: subcutaneous dose of 50 mg/kg
Description: as §1

[7] = tested on: uterine endometrium; assay: Anti-progestomimetic activity versus progesterone, oral, change in uterine endometrium (McPhail); assay type: in vivo, immature female rabbits
Description: as §3, §4, §5

CC#C[C@]1(O)CC[C@H]2[C@@H]3CCC4=CC(=O)CCC4=C3[C@@H](c3ccc(N(C)C)cc3)C[C@@]21C [Example 19, 11β-[4-(N,N-dimethylamino)-phenyl]-17α-(prop-1-ynyl)-Δ^4,9-estradiene-17β-ol-3-one]
glucocorticoidal anti-inflammatory activity [1]: did not show any glucocorticoidal anti-inflammatory activity
RESULTS (anti-implantation / abortion) ([2]; days 1, 2, 3, 2 mg/kg/day): No action
RESULTS (anti-implantation / abortion) ([2]; days 1, 2, 3, 10 mg/kg/day): Non-implantation
RESULTS (anti-implantation / abortion) ([2]; days 4, 5, 6, 2 mg/kg/day): Non-implantation
RESULTS (anti-implantation / abortion) ([2]; days 4, 5, 6, 10 mg/kg/day): Non-implantation
RESULTS (anti-implantation / abortion) ([2]; days 7, 8, 9, 2 mg/kg/day): Abortion
RESULTS (anti-implantation / abortion) ([2]; days 7, 8, 9, 10 mg/kg/day): Abortion
RESULTS (anti-implantation / abortion) ([2]; days 10, 11, 12, 2 mg/kg/day): Abortion
RESULTS (anti-implantation / abortion) ([2]; days 10, 11, 12, 10 mg/kg/day): Abortion
Abortion, % of the animals ([2]; days 13, 14, 15, 2 mg/kg/day): 50%
RESULTS (anti-implantation / abortion) ([2]; days 13, 14, 15, 10 mg/kg/day): Abortion
CHANGE IN THE ENDOMETRIUM ([3]; 30 μg/rabbit): 0
CHANGE IN THE ENDOMETRIUM ([3]; 500 μg/rabbit): 0
CHANGE IN THE ENDOMETRIUM ([4]; progesterone 10 μg + 1 μg/rabbit): 1.6
CHANGE IN THE ENDOMETRIUM ([4]; progesterone 10 μg + 3 μg/rabbit): 1.3
CHANGE IN THE ENDOMETRIUM ([4]; progesterone 10 μg + 10 μg/rabbit): 1.0
CHANGE IN THE ENDOMETRIUM ([4]; progesterone 10 μg + 30 μg/rabbit): 0.6
CHANGE IN THE ENDOMETRIUM ([4]; progesterone 10 μg + 90 μg/rabbit): 0.6
CHANGE IN THE ENDOMETRIUM ([5]; 0.3 mg/kg by mouth): 0 McPHAIL UNTS
CHANGE IN THE ENDOMETRIUM ([5]; 1.0 mg/kg by mouth): 0 McPHAIL UNTS
CHANGE IN THE ENDOMETRIUM ([5]; 3.0 mg/kg by mouth): 0 McPHAIL UNTS
CHANGE IN THE ENDOMETRIUM ([5]; 10.0 mg/kg by mouth): 0 McPHAIL UNTS
CHANGE IN THE ENDOMETRIUM ([5]; 50 mg/kg by mouth): 0 McPHAIL UNTS
thymolytic activity [6]: did not show any glucocorticoidal anti-inflammatory activity or thymolytic activity
CHANGE IN THE ENDOMETRIUM ([7]; progesterone 0.2 mg subcutaneously + 0.3 mg/kg by mouth): 2.8 McPHAIL UNTS
CHANGE IN THE ENDOMETRIUM ([7]; progesterone 0.2 mg subcutaneously + 1 mg/kg by mouth): 2.1 McPHAIL UNTS
CHANGE IN THE ENDOMETRIUM ([7]; progesterone 0.2 mg subcutaneously + 3 mg/kg by mouth): 1.4 McPHAIL UNTS
CHANGE IN THE ENDOMETRIUM ([7]; progesterone 0.2 mg subcutaneously + 10 mg/kg by mouth): 0.6 McPHAIL UNTS
CHANGE IN THE ENDOMETRIUM ([7]; progesterone 0.2 mg subcutaneously + 20 mg/kg by mouth): 0 McPHAIL UNTS
